The record followed here is ChEMBL document CHEMBL3877312, “Synthesis, anticholinesterase activity and molecular modeling study of novel carbamate-substituted thymol/carvacrol derivatives” (Bioorg Med Chem, 2017).

In data set [1] the target is Acetylcholinesterase (Electrophorus electricus, UniProt O42275). In words: Inhibition of electric eel AChE using acetylthiocholine iodide as substrate preincubated for 15 mins followed by substrate addition by Ellman's method. (In general: DTNB colorimetry detects thiols as they appear.)
In data set [2] the target is Cholinesterase (Equus caballus, UniProt P81908). In words: Inhibition of horse serum BuChE using butyrylthiocholine iodide as substrate preincubated for 15 mins followed by substrate addition by Ellman's method.
The nature of data set [3]: Cytotoxicity against rat H4IIE cells assessed as cell viability at 5 uM after 24 hrs by MTT assay relative to control. It counts as toxicity. The following applies: read-out: Activity. A general note: Tetrazolium assays rely on reduction of a dye to a coloured formazan, in cell work by metabolically active cells.
Data set [4] in a line: Cytotoxicity against rat H4IIE cells assessed as cell viability at 1.25 uM after 24 hrs by MTT assay relative to control. Format: toxicity. The note with it: read-out: Activity.
Data set [5] is described as follows: Cytotoxicity against rat H4IIE cells assessed as cell viability at 0.3 uM after 24 hrs by MTT assay relative to control. The following applies: read-out: Activity. Format: toxicity.
A short description of data set [6]: Cytotoxicity against rat H4IIE cells assessed as cell viability at 0.15 uM after 24 hrs by MTT assay relative to control. Format: toxicity. The following applies: read-out: Activity.
Data set [7] in a line: Cytotoxicity against rat H4IIE cells assessed as cell viability at 2.5 uM after 24 hrs by MTT assay relative to control. It counts as toxicity. The following applies: read-out: Activity.
Data set [8] in a line: Cytotoxicity against rat H4IIE cells assessed as cell viability at 0.07 uM after 24 hrs by MTT assay relative to control. It counts as toxicity. The note with it: read-out: Activity.
A short description of data set [9]: Cytotoxicity against rat H4IIE cells assessed as cell viability at 0.6 uM after 24 hrs by MTT assay relative to control. Format: toxicity. The following applies: read-out: Activity.
Data set [10] is described as follows: Cytotoxicity against rat H4IIE cells assessed as cell viability at 10 uM after 24 hrs by MTT assay relative to control. The note with it: read-out: Activity. Format: toxicity.

Chain of Acetylcholinesterase (O42275 whole entry): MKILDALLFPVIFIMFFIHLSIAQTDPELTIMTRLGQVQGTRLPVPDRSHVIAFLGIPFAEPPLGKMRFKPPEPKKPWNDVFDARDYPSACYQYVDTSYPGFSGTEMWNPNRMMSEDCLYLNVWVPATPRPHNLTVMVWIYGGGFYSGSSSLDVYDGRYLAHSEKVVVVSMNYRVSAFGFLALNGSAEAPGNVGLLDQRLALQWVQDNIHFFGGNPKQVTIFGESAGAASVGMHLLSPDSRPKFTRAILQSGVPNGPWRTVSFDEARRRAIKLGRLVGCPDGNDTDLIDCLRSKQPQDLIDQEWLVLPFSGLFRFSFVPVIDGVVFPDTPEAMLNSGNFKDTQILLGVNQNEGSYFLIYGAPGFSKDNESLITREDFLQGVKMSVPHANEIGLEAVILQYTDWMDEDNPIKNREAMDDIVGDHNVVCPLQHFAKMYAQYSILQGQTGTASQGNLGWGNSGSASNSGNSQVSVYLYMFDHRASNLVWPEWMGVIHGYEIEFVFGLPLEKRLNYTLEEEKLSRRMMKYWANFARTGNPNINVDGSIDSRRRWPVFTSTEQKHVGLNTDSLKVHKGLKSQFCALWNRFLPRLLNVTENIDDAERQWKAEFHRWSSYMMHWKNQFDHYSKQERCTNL
Chain of Cholinesterase (P81908 whole entry): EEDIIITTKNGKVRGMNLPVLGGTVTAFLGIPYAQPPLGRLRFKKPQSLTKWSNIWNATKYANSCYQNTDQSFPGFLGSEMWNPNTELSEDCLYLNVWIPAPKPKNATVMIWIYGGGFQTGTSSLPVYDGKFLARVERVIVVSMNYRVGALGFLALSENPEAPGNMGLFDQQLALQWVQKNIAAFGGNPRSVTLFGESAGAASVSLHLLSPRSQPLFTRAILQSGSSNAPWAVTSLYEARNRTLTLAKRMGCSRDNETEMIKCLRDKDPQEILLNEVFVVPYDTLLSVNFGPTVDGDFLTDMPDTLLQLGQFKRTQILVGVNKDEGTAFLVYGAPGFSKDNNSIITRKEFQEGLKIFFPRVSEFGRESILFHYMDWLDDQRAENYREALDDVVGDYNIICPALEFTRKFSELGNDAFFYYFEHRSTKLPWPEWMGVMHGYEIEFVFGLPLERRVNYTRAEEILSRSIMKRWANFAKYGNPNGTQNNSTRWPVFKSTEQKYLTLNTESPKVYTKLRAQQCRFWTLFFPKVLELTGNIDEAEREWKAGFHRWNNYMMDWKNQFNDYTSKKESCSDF

In general, IC50 refers to the point on the concentration scale where inhibition reaches its midpoint. `Cc1ccc(C(C)C)cc1OC(=O)Nc1cccc([N+](=O)[O-])c1`: the IC50 in data set [1] turned out to be 5.05 µM; in data set [2], 0.56 µM.
As to `Cc1ccc(C(C)C)cc1OC(=O)Nc1ccccc1`, the viability at 24 h, 5 µM in data set [3] came to 25.8%. In addition, in data set [4], the viability at 24 h, 1.25 µM came out at 60%. Besides, in data set [5], the viability at 24 h, 0.3 µM was found to be 90%. Besides, the viability at 24 h, 0.15 µM in [6] is 87.9%. Besides, the viability at 24 h, 2.5 µM in [7] was found to be 43.3%. The viability at 24 h, 0.07 µM in [8] came to 93.8%. For the same compound, the values for the concentration for half-maximal inhibition (IC50) in [1] and in data set [2] were 4.01 µM and 0.55 µM, respectively. Moreover, the viability at 24 h, 0.6 µM in [9] was determined as 82.5%. Also, the viability at 24 h, 10 µM in [10] is 26%.
Regarding `Cc1ccc(C(C)C)c(OC(=O)Nc2ccc(I)cc2)c1`, the IC50 in data set [1] was found to be 31.6 µM; in [2] it was 4.77 µM.
Turning to `Cc1ccc(C(C)C)c(OC(=O)NCC2CCCCC2)c1`, in data set [2], the IC50 was determined as 36.8 µM.
In the case of `Cc1ccc(C(C)C)cc1OC(=O)NC1CCCC1`, the viability at 24 h, 5 µM in [3] is 38.9%. Besides, the viability at 24 h, 1.25 µM in [4] is 50.4%. Further, in data set [5], the viability at 24 h, 0.3 µM is 71.1%. Also, in data set [6], the viability at 24 h, 0.15 µM is 75.6%. In addition, in data set [7], the viability at 24 h, 2.5 µM came to 47.8%. Moreover, in [8], the viability at 24 h, 0.07 µM was found to be 94.4%. In addition, the IC50 came to 3.37 µM in [1] and 1.01 µM in [2]. The viability at 24 h, 0.6 µM in [9] amounted to 63.3%. Moreover, in data set [10], the viability at 24 h, 10 µM amounted to 37.4%.
For the compound `Cc1ccc(C(C)C)c(OC(=O)Nc2ccc(F)cc2)c1`, the concentration for half-maximal inhibition (IC50) in data set [1] stood at 270 µM; in data set [2], 405 µM.
`Cc1ccc(C(C)C)c(OC(=O)Nc2ccc([N+](=O)[O-])cc2)c1`: the viability at 24 h, 5 µM in data set [3] came to 32.8%. For the same compound, the viability at 24 h, 1.25 µM in data set [4] came out at 47.2%. For the same compound, the viability at 24 h, 0.3 µM in [5] is 54.4%. The viability at 24 h, 0.15 µM in data set [6] came out at 57.8%. In addition, in data set [7], the viability at 24 h, 2.5 µM was determined as 40%. Also, the viability at 24 h, 0.07 µM in data set [8] stood at 97.8%. Also, the values for the concentration for half-maximal inhibition (IC50) in data set [1] and in data set [2] were 2.5 µM and 37.7 µM, respectively. For the same compound, the viability at 24 h, 0.6 µM in [9] turned out to be 51.7%. The viability at 24 h, 10 µM in [10] is 26.1%.
In the case of `Cc1ccc(C(C)C)cc1OC(=O)NC1CCCCCC1`, the values for the half-maximal inhibitory concentration (IC50) in data set [1] and in [2] were 126 µM and 112 µM, respectively.
Taken in the same sequence, the figures for `Cc1ccc(C(C)C)c(O)c1` [THYMOL] were 458 µM and 226 µM.
The corresponding values for `Cc1ccc(C(C)C)cc1O` [CARVACROL] are 288 µM and 411 µM.
On to `Cc1ccc(C(C)C)cc1OC(=O)Nc1ccc(F)cc1`, for which the viability at 24 h, 5 µM in data set [3] was found to be 32.8%. Also, the viability at 24 h, 1.25 µM in data set [4] amounted to 62.2%. For the same compound, the viability at 24 h, 0.3 µM in data set [5] turned out to be 68.9%. Further, the viability at 24 h, 0.15 µM in [6] stood at 69.4%. The viability at 24 h, 2.5 µM in data set [7] stood at 41.6%. For the same compound, the viability at 24 h, 0.07 µM in [8] is 92.8%. For the same compound, the 50% inhibitory concentration (IC50) in data set [1] was 3.02 µM; in data set [2] it was 0.02 µM. Also, the viability at 24 h, 0.6 µM in [9] is 65.9%. Moreover, in data set [10], the viability at 24 h, 10 µM was 28.5%.
As to `Cc1ccc(C(C)C)cc1OC(=O)Nc1ccc(Cl)cc1`, the IC50 was 148 µM in data set [1] and 0.13 µM in data set [2].
In the case of `Cc1ccc(C(C)C)c(OC(=O)Nc2ccc(Cl)cc2)c1`, the values for the half-inhibitory concentration (IC50) in data set [1] and in data set [2] were 229 µM and 137 µM, respectively.
On to `Cc1ccc(C(C)C)c(OC(=O)Nc2ccc(Cl)c(Cl)c2)c1`, for which the values for the IC50 in data set [1] and in [2] were 89.5 µM and 2.54 µM, respectively.
The compound `COc1ccc(NC(=O)Oc2cc(C)ccc2C(C)C)cc1` showed an IC50 in data set [2] of 60 µM.
`Cc1ccc(C(C)C)c(OC(=O)Nc2cccc(F)c2)c1`: the IC50 in [1] came to 88.5 µM; in data set [2] it was 3.85 µM.
As for `Cc1ccc(C(C)C)c(OC(=O)NCc2ccccc2)c1`, the 50% inhibitory concentration (IC50) was found to be 111 µM in data set [1] and 1.45 µM in data set [2].
For `Cc1ccc(C(C)C)cc1OC(=O)Nc1ccc(I)cc1`, the IC50 in data set [1] came to 138 µM; in data set [2] it was 0.21 µM.
Take `Cc1ccc(C(C)C)cc1OC(=O)NCC1CCCCC1`: the half-maximal inhibitory concentration (IC50) came to 8.08 µM in data set [1] and 0.3 µM in data set [2].
Take `Cc1ccc(C(C)C)c(OC(=O)Nc2ccc(Br)cc2)c1`: the IC50 in [1] was 98.6 µM; in [2], 107 µM.
The corresponding values for `Cc1ccc(C(C)C)c(OC(=O)NC2CCCC2)c1` are 420 µM and 167 µM.
Taken in the same sequence, the figures for `Cc1ccc(C(C)C)cc1OC(=O)Nc1ccc(Br)cc1` were 104 µM and 0.15 µM.
Take `Cc1ccc(C(C)C)c(OC(=O)Nc2cccc3ccccc23)c1`: the IC50 turned out to be 157 µM in [1] and 96.1 µM in data set [2].
For `Cc1ccc(C(C)C)cc1OC(=O)Nc1ccc(Cl)c(Cl)c1`, the IC50 in data set [1] was 86.2 µM; in [2] it was 0.41 µM.
For the compound `Cc1ccc(C(C)C)c(OC(=O)Nc2cccc([N+](=O)[O-])c2)c1`, the IC50 in data set [1] turned out to be 82.9 µM; in [2], 3.31 µM.
As to `Cc1ccc(C(C)C)cc1OC(=O)NCc1ccccc1`, the half-inhibitory concentration (IC50) in data set [1] was 77.8 µM; in data set [2] it was 0.07 µM.
Turning to `Cc1ccc(C(C)C)cc1OC(=O)Nc1ccc(C(F)(F)F)cc1`, the IC50 in data set [1] worked out at 85.7 µM; in data set [2] it was 1.23 µM.
For `Cc1ccc(NC(=O)Oc2cc(C)ccc2C(C)C)cc1`, the IC50 is 229 µM in data set [1] and 9.4 µM in data set [2].
For the compound `COc1ccc(NC(=O)Oc2cc(C(C)C)ccc2C)cc1`, the figures for the 50% inhibitory concentration (IC50) in data set [1] and in [2] were 54.5 µM and 0.52 µM, respectively.
Consider `Cc1ccc(C(C)C)cc1OC(=O)Nc1cccc(F)c1`, for which the viability at 24 h, 5 µM in data set [3] worked out at 37.2%. Also, the viability at 24 h, 1.25 µM in data set [4] was 47.8%. Moreover, in [5], the viability at 24 h, 0.3 µM is 74.1%. Moreover, the viability at 24 h, 0.15 µM in [6] amounted to 90%. The viability at 24 h, 2.5 µM in [7] turned out to be 45.8%. For the same compound, the viability at 24 h, 0.07 µM in [8] came out at 98.1%. In addition, the IC50 in [1] was found to be 2.22 µM; in data set [2], 1.02 µM. In data set [9], the viability at 24 h, 0.6 µM came to 64.4%. In addition, the viability at 24 h, 10 µM in data set [10] was 28.5%.
Consider `Cc1ccc(NC(=O)Oc2cc(C(C)C)ccc2C)cc1`, for which the values for the IC50 in data set [1] and in data set [2] were 6.17 µM and 0.31 µM, respectively.
On to `Cc1ccc(C(C)C)cc1OC(=O)NC1CCCCC1`, for which the IC50 in data set [1] came out at 23 µM; in data set [2] it was 1.03 µM.
In the case of `Cc1ccc(C(C)C)cc1OC(=O)Nc1cccc2ccccc12`, the 50% inhibitory concentration (IC50) in [1] came to 127 µM; in data set [2] it was 0.51 µM.
Consider `Cc1ccc(C(C)C)c(OC(=O)Nc2ccccc2)c1`, for which the IC50 was found to be 198 µM in data set [1] and 5.02 µM in data set [2].
Take `COc1cccc(NC(=O)Oc2cc(C)ccc2C(C)C)c1`: the IC50 in data set [1] amounted to 154 µM; in data set [2], 1.65 µM.
On to `COc1cccc(NC(=O)Oc2cc(C(C)C)ccc2C)c1`, for which the 50% inhibitory concentration (IC50) stood at 2.24 µM in [1] and 1.64 µM in data set [2].
Consider `Cc1ccc(C(C)C)cc1OC(=O)Nc1ccc([N+](=O)[O-])cc1`, for which the IC50 stood at 121 µM in data set [1] and 1.05 µM in data set [2].
For `Cc1ccc(C(C)C)c(OC(=O)Nc2ccc(C(F)(F)F)cc2)c1`, the half-inhibitory concentration (IC50) in data set [1] came out at 98.5 µM; in data set [2], 148 µM.
